The NIST ThermoML archive (doi:10.1021/je700260f)
Numbers after ± are expanded uncertainties.

Settings: 333.15 K, Liquid, Vibrating tube method

Question: What does the source list for `FC(C(F)(F)F)C(F)(F)F` [1,1,1,2,3,3,3-heptafluoropropane]?
Answer: mass density (6413 kPa): 1291.3 ± 1.5 kg/m3; mass density (6442 kPa): 1291.6 ± 1.5 kg/m3; mass density (6789 kPa): 1295.3 ± 1.5 kg/m3; mass density (6821 kPa): 1295.6 ± 1.5 kg/m3; mass density (6856 kPa): 1296 ± 1.5 kg/m3; mass density (6887 kPa): 1296.2 ± 1.5 kg/m3; mass density (6965 kPa): 1297 ± 1.5 kg/m3; mass density (7009 kPa): 1297.4 ± 1.5 kg/m3; mass density (8110 kPa): 1308.2 ± 1.5 kg/m3; mass density (8143 kPa): 1308.5 ± 1.5 kg/m3; mass density (8176 kPa): 1308.8 ± 1.5 kg/m3; mass density (8204 kPa): 1309.2 ± 1.5 kg/m3; mass density (8236 kPa): 1309.5 ± 1.5 kg/m3; mass density (8273 kPa): 1309.8 ± 1.5 kg/m3; mass density (8298 kPa): 1310.1 ± 1.5 kg/m3; mass density (8328 kPa): 1310.3 ± 1.5 kg/m3; mass density (8357 kPa): 1310.6 ± 1.5 kg/m3; mass density (8395 kPa): 1311 ± 1.5 kg/m3; mass density (8425 kPa): 1311.2 ± 1.5 kg/m3; mass density (8467 kPa): 1311.5 ± 1.5 kg/m3; mass density (8497 kPa): 1311.8 ± 1.5 kg/m3; mass density (8538 kPa): 1312.3 ± 1.5 kg/m3; mass density (8560 kPa): 1312.4 ± 1.5 kg/m3; mass density (8592 kPa): 1312.8 ± 1.5 kg/m3; mass density (8622 kPa): 1313 ± 1.5 kg/m3; mass density (8665 kPa): 1313.3 ± 1.5 kg/m3; mass density (8701 kPa): 1313.7 ± 1.5 kg/m3; mass density (8732 kPa): 1313.9 ± 1.5 kg/m3; mass density (8768 kPa): 1314.3 ± 1.5 kg/m3; mass density (8804 kPa): 1314.6 ± 1.5 kg/m3; mass density (8846 kPa): 1314.9 ± 1.5 kg/m3; mass density (8884 kPa): 1315.2 ± 1.5 kg/m3; mass density (8912 kPa): 1315.8 ± 1.5 kg/m3; mass density (8940 kPa): 1316 ± 1.5 kg/m3; mass density (9044 kPa): 1316.8 ± 1.5 kg/m3; mass density (9087 kPa): 1317.2 ± 1.5 kg/m3; mass density (9121 kPa): 1317.5 ± 1.5 kg/m3; mass density (9164 kPa): 1317.9 ± 1.5 kg/m3; mass density (9196 kPa): 1318 ± 1.5 kg/m3; mass density (9219 kPa): 1318.3 ± 1.5 kg/m3; mass density (9251 kPa): 1318.6 ± 1.5 kg/m3; mass density (9270 kPa): 1318.8 ± 1.5 kg/m3; mass density (9294 kPa): 1319 ± 1.5 kg/m3; mass density (9321 kPa): 1319.3 ± 1.5 kg/m3; mass density (9349 kPa): 1319.5 ± 1.5 kg/m3; mass density (9370 kPa): 1319.7 ± 1.5 kg/m3; mass density (9402 kPa): 1319.9 ± 1.5 kg/m3; mass density (9422 kPa): 1320.1 ± 1.5 kg/m3; mass density (9455 kPa): 1320.4 ± 1.5 kg/m3; mass density (9483 kPa): 1320.7 ± 1.5 kg/m3; mass density (9512 kPa): 1320.9 ± 1.5 kg/m3; mass density (9533 kPa): 1321.1 ± 1.5 kg/m3; mass density (9552 kPa): 1321.1 ± 1.5 kg/m3; mass density (9578 kPa): 1321.4 ± 1.5 kg/m3; mass density (9599 kPa): 1321.5 ± 1.5 kg/m3; mass density (9631 kPa): 1321.9 ± 1.5 kg/m3; mass density (9652 kPa): 1322.1 ± 1.5 kg/m3; mass density (9684 kPa): 1322.3 ± 1.5 kg/m3; mass density (9713 kPa): 1322.7 ± 1.5 kg/m3; mass density (9737 kPa): 1322.8 ± 1.5 kg/m3; mass density (10680 kPa): 1330.6 ± 1.5 kg/m3; mass density (10703 kPa): 1330.9 ± 1.5 kg/m3; mass density (10737 kPa): 1331 ± 1.5 kg/m3; mass density (10763 kPa): 1331.3 ± 1.5 kg/m3; mass density (10786 kPa): 1331.6 ± 1.5 kg/m3; mass density (10813 kPa): 1331.6 ± 1.5 kg/m3; mass density (11004 kPa): 1333.2 ± 1.5 kg/m3; mass density (11030 kPa): 1333.5 ± 1.5 kg/m3; mass density (11055 kPa): 1333.5 ± 1.5 kg/m3; mass density (11083 kPa): 1333.8 ± 1.5 kg/m3; mass density (11507 kPa): 1337.2 ± 1.5 kg/m3; mass density (11567 kPa): 1337.7 ± 1.5 kg/m3; mass density (11594 kPa): 1337.8 ± 1.5 kg/m3; mass density (11620 kPa): 1338 ± 1.5 kg/m3; mass density (11651 kPa): 1338.3 ± 1.5 kg/m3; mass density (11678 kPa): 1338.4 ± 1.5 kg/m3; mass density (11705 kPa): 1338.6 ± 1.5 kg/m3; mass density (11734 kPa): 1338.8 ± 1.5 kg/m3; mass density (11757 kPa): 1339 ± 1.5 kg/m3; mass density (12501 kPa): 1344.5 ± 1.5 kg/m3; mass density (12533 kPa): 1344.8 ± 1.5 kg/m3; mass density (12561 kPa): 1345 ± 1.5 kg/m3; mass density (12589 kPa): 1345.2 ± 1.5 kg/m3; mass density (12616 kPa): 1345.4 ± 1.5 kg/m3; mass density (12648 kPa): 1345.7 ± 1.5 kg/m3; mass density (12675 kPa): 1345.9 ± 1.5 kg/m3; mass density (12698 kPa): 1346.1 ± 1.5 kg/m3; mass density (12730 kPa): 1346.2 ± 1.5 kg/m3; mass density (12754 kPa): 1346.4 ± 1.5 kg/m3; mass density (12789 kPa): 1346.6 ± 1.5 kg/m3; mass density (12823 kPa): 1347 ± 1.5 kg/m3; mass density (12846 kPa): 1347.1 ± 1.5 kg/m3; mass density (13551 kPa): 1352.2 ± 1.5 kg/m3; mass density (13574 kPa): 1352.3 ± 1.5 kg/m3; mass density (13601 kPa): 1352.5 ± 1.5 kg/m3; mass density (13746 kPa): 1353.4 ± 1.5 kg/m3; mass density (13772 kPa): 1353.6 ± 1.5 kg/m3; mass density (13801 kPa): 1353.7 ± 1.5 kg/m3; mass density (13830 kPa): 1354.1 ± 1.5 kg/m3; mass density (13863 kPa): 1354.3 ± 1.5 kg/m3; mass density (13893 kPa): 1354.5 ± 1.5 kg/m3; mass density (14170 kPa): 1356.5 ± 1.5 kg/m3; mass density (14195 kPa): 1356.8 ± 1.5 kg/m3
